Data taken from patent US11352395B2, “Anticancer peptides” (IDP DISCOVERY PHARMA, S.L., priority 2017, dated 2022).
Where two headings read alike, the source gives them in different places. *1 amine or outer side, *2 acyl side, *3 side chain or, on linkers, in order; H or OH if unused. Where a SMILES comes first, the peptide text is derived from it. Bridges are numbered along the chain shown (N, C = ends). Where no end group is shown, it is not given here. [ ]: non-standard residue; d: D form. ξ: configuration not given here. ξαMeNle(6-ylidene) = CC(CCCC=[*:3])(N[*:1])C(=O)[*:2]; X1 = CC(CCCCCCC=[*:3])(N[*:1])C(=O)[*:2]

Tests used:
[1] = system: NCI-H524, lung (small cell lung cancer, SCLC)
Text: Cell Lines: NCI-H524, lung (small cell lung cancer, SCLC), ATCC-CRL-5831 RG1, epithelial (glioblastoma, GMB), from surgical specimens from patients GMB-27, epithelial (glioblastoma, GMB), from surgical specimens from patients 12O15, epithelial (glioblastoma, GMB), from surgical specimens from patients 12O53, epithelial (glioblastoma, GMB), from surgical specimens from patients 12O89, epithelial (glioblastoma, GMB), from surgical specimens from patients RG6, epithelial (glioblastoma, GMB), from surgical specimens from patients RG4, epithelial (glioblastoma, GMB), from surgical specimens from patients RG5, epithelial (glioblastoma, GMB), from surgical specimens from patients Cell Culture […]
During the amplification step and the assays adherent cells were rinsed with DPBS (Dulbecco's Phosphate Buffered Saline, Sigma D1283) three times and afterward treated for 5 minutes with trypsin ([0.5 g/ml]/EDTA [0.2 g/ml]) (Gibco-BRL, 15400054) in solution of DPBS at 37° C., and, once detached, transferred in the culturing medium. […] Cells were counted in a Neubauer chamber after labelling with Tripan-Blue. […]
Cells were incubated during 72-96 h in incubator under CO2 atmosphere at 37° C. Cell viability was measured by means of Alamar Blue® (Biosource DAL1100) and CYTELL™, after treatment with Propidium iodide and Hoechst (GE Healthcare), following manufacturer instructions. […]

[2] = system: 12O53, epithelial (glioblastoma, GMB); assay type: cell-based, human
Text: [drawing 12] a L birradical corresponding to -(CH2)3-CH═CH-(CH2)3- (for the case of NS02) or -(CH2)6-CH═CH-(CH2)3- (for the cases NS10, NS16 and Na05) links both Xs radicals in each sequence, and CPP2 corresponds to penetratine peptide. Cell Lines: NCI-H524, lung (small cell lung cancer, SCLC), ATCC-CRL-5831 RG1, epithelial (glioblastoma, GMB), from surgical specimens from patients GMB-27, epithelial (glioblastoma, GMB), from surgical specimens from patients 12O15, epithelial (glioblastoma, GMB), from surgical specimens from patients 12O53, epithelial (glioblastoma, GMB), from surgical specimens from patients 12O89, epithelial (glioblastoma, GMB), from surgical specimens from patients RG6, epithelial (glioblastoma, GMB), from surgical specimens from patients RG4, epithelial (glioblastoma, GMB), from surgical specimens from patients RG5, epithelial (glioblastoma, GMB), from surgical specimens from patients Cell Culture During the amplification step and the assays adherent cells were rinsed with DPBS (Dulbecco's Phosphate Buffered Saline, Sigma D1283) three times and afterward treated for 5 minutes with trypsin ([0.5 g/ml]/EDTA [0.2 g/ml]) (Gibco-BRL, 15400054) in solution of DPBS at 37° C., and, once detached, transferred in the culturing medium. No-adherent cells were dissociated with Accumax, centrifuged and transferred in the culturing medium. Cells were counted in a Neubauer chamber after labelling with Tripan-Blue. […] NCI-H524 were seeded at a density of 2500 cells/well in 96 well plates; […]6, 12015, 12089 and GBM-27 were dissociated with Accumax and plate on p96 wells covered with Matrigel. After 24 h, the compounds to be tested were added to calculate the dose/response curve at the starting concentration of 100 μM with serial dilutions (1:1). Controls are the untreated cells. Each experiment was performed in triplicate. Cells were incubated during 72-96 h in incubator under CO2 atmosphere at 37° C. Cell viability was measured by means of Alamar Blue® (Biosource DAL1100) and […], after treatment with Propidium iodide and Hoechst (GE Healthcare), following manufacturer instructions. Alamar Blue: 10 μl Alamar Blue solution was added to each well and the plates were incubated for […] in the incubator. Fluorescence ratio at 535/590 (excitation/emission) was measured in Cytofluor (Millipore) fluorimeter. Blank control was determined by lysis of untreated cells with con 2% of Triton X100, right before adding Alamar Blue solution. […] of propidium iodide and/or Hoechst solution was added to each well and the plates were incubated for 10 minutes protected by light. Control samples were represented by untreated cells and cell treated with 100% DMSO. Fluorescent stained cells which corresponds to death cells were detected by Cytell Imaging System and their amount calculated. % Viability=Number of non-blue cells×100/Number of total cells Statistics Data analysis was performed calculating the percentage of cell viability normalized vs. the values of negative control, which was considered equal to 100%. The dose/response curve was fitted through the sigmoidal equation dose-response (variable slope) and the EC50 values were calculated as follow: Y=Bottom+(Top-Bottom)/(1+10^{[(Log EC50-X)*HillSlope]}, where: X is compound concentration (log scale) and Y is the response

[3] = system: RG1, epithelial (glioblastoma, GMB)
Experimental: Alamar Blue: 10 μl Alamar Blue solution was added to each well and the plates were incubated for 4 in the incubator. Fluorescence ratio at 535/590 (excitation/emission) was measured in Cytofluor (Millipore) fluorimeter. Blank control was determined by lysis of untreated cells with con 2% of Triton X100, right before adding Alamar Blue solution.

[4] = system: RG4, epithelial (glioblastoma, GMB); assay type: cell-based, human
Text: (§1) [drawing 12] a L birradical corresponding to —(CH2)3—CH═CH—(CH2)3— (for the case of NS02) or —(CH2)6—CH═CH—(CH2)3— (for the cases NS10, NS16 and Na05) links both Xs radicals in each sequence, and CPP2 corresponds to penetratine peptide. Cell Lines: NCI-H524, lung (small cell lung cancer, SCLC), ATCC-CRL-5831 RG1, epithelial (glioblastoma, GMB), from surgical specimens from patients GMB-27, epithelial (glioblastoma, GMB), from surgical specimens from patients 12O15, epithelial (glioblastoma, GMB), from surgical specimens from patients 12O53, epithelial (glioblastoma, GMB), from surgical specimens from patients 12O89, epithelial (glioblastoma, GMB), from surgical specimens from patients RG6, epithelial (glioblastoma, GMB), from surgical specimens from patients RG4, epithelial (glioblastoma, GMB), from surgical specimens from patients RG5, epithelial (glioblastoma, GMB), from surgical specimens from patients Cell Culture
(§2) Cell lines NCI-H524 were cultured in incubator at 37° C. in RPMI-1640 (Sigma R8758) medium with 10% of fetal bovine serum inactivated (FBS) and 2 mM glutamine (Sigma G7513). Cell line RG1, RG4, RG5, RG6, 12015, 12089 and GBM-27 were cultured in incubator under CO2 (6%) at 37° C. in complete medium (Neurobasal+B27+Glutamax+Growth factors).
(§3) During the amplification step and the assays adherent cells were rinsed with DPBS (Dulbecco's Phosphate Buffered Saline, Sigma D1283) three times and afterward treated for 5 minutes with trypsin ([0.5 g/ml]/EDTA [0.2 g/ml]) (Gibco-BRL, 15400054) in solution of DPBS at 37° C., and, once detached, transferred in the culturing medium. No-adherent cells were dissociated with Accumax, centrifuged and transferred in the culturing medium. Cells were counted in a Neubauer chamber after labelling with Tripan-Blue.
(§4) NCI-H524 were seeded at a density of 2500 cells/well in 96 well plates; RG1, RG4, RG5, RG6, 12015, 12089 and GBM-27 were dissociated with Accumax and plate on p96 wells covered with Matrigel. After 24 h, the compounds to be tested were added to calculate the dose/response curve at the starting concentration of 100 μM with serial dilutions (1:1). Controls are the untreated cells. Each experiment was performed in triplicate.
(§5) Cells were incubated during 72-96 h in incubator under CO2 atmosphere at 37° C. Cell viability was measured by means of Alamar Blue® (Biosource DAL1100) and CYTELL™, after treatment with Propidium iodide and Hoechst (GE Healthcare), following manufacturer instructions.
(§6) Alamar Blue: 10 μl Alamar Blue solution was added to each well and the plates were incubated for […] in the incubator. Fluorescence ratio at 535/590 (excitation/emission) was measured in Cytofluor (Millipore) fluorimeter. Blank control was determined by lysis of untreated cells with con 2% of Triton X100, right before adding Alamar Blue solution.
(§7) CYTELL™: 10 μl of propidium iodide and/or Hoechst solution was added to each well and the plates were incubated for 10 minutes protected by light. Control samples were represented by untreated cells and cell treated with 100% DMSO. Fluorescent stained cells which corresponds to death cells were detected by Cytell Imaging System and their amount calculated. % Viability=Number of non-blue cells×100/Number of total cells Statistics
(§8) Data analysis was performed calculating the percentage of cell viability normalized vs. the values of negative control, which was considered equal to 100%. The dose/response curve was fitted through the sigmoidal equation dose-response (variable slope) and the EC50 values were calculated as follow: Y=Bottom+(Top−Bottom)/(1+10^{[(Log EC50−X)*HillSlope]}, where: X is compound concentration (log scale) and Y is the response

[5] = system: RG6, epithelial (glioblastoma, GMB); assay type: cell-based, human
Text: as §1, §2, §3, §4, §5, §6, §7, §8

[6] = system: GBM27 (GMB-27), epithelial (glioblastoma); assay type: cell-based, human
Text: as §1, §2, §3, §4, §5, §6, §7, §8

[7] = system: 12O89, epithelial (glioblastoma, GMB); assay type: cell-based, human
Text: as §1, §2, §3, §4, §5, §6, §7, §8

[8] = system: RG5, epithelial (glioblastoma, GMB); assay type: cell-based, human
Text: as §1, §2, §3, §4, §5, §6, §7, §8

[9] = system: 12O15, epithelial (glioblastoma, GMB); assay type: cell-based, human
Text: as §1, §2, §3, §4, §5, §6, §7, §8

tumor cell lines = assay: Anti-cancer activity in tumor cell lines (summary statements); assay type: cell-based
Experimental: NCI-H524 were seeded at a density of 2500 cells/well in 96 well plates; […]6, 12015, 12089 and GBM-27 were dissociated with Accumax and plate on p96 wells covered with Matrigel. After 24 h, the compounds to be tested were added to calculate the dose/response curve at the starting concentration of 100 μM with serial dilutions (1:1). Controls are the untreated cells. Each experiment was performed in triplicate. Cells were incubated during 72-96 h in incubator under CO2 atmosphere at 37° C. Cell viability was measured by means of Alamar Blue® (Biosource DAL1100) and […], after treatment with Propidium iodide and Hoechst (GE Healthcare), following manufacturer instructions. Data analysis was performed calculating the percentage of cell viability normalized vs. the values of negative control, which was considered equal to 100%. The dose/response curve was fitted through the sigmoidal equation dose-response (variable slope) and the EC50 values were calculated as follow: Y=Bottom+(Top-Bottom)/(1+10^{[(Log EC50-X)*HillSlope]}, where: X is compound concentration (log scale) and Y is the response

## CC(C)C[C@H](NC(=O)[C@H](Cc1ccccc1)NC(=O)C1(C)CCCC=CCCCC(C)(NC(=O)[C@H](CC(N)=O)NC(=O)[C@H](CCCNC(=N)N)NC(=O)[C@H](CCCNC(=N)N)NC(=O)[C@H](CCC(N)=O)NC(=O)[C@@H](N)CCCNC(=N)N)C(=O)N[C@@H](CC(C)C)C(=O)N[C@@H](CCCNC(=N)N)C(=O)N[C@@H](CO)C(=O)N1)C(=O)N[C@H](C(=O)N[C@@H](CC(C)C)C(=O)N[C@@H](CCCNC(=N)N)C(=O)N[C@@H](CC(=O)O)C(=O)N[C@@H](Cc1c[nH]cn1)C(N)=O)[C@@H](C)O (stereo partly shown) [IDP-NS02] (H-RQRRN[ξαMeNle(6-ylidene)]LRS[ξαMeNle(6-ylidene)]FLTLRDH-NH2; staple 6-10; N-terminus and C-terminus assumed)
[1]
  EC50: ~5 µM
[2]
  EC50: > 100 µM
[3]
  EC50: > 100 µM

## CC[C@H](C)[C@@H]1NC(=O)[C@H](C(C)C)NC(=O)[C@H](C(C)C)NC(=O)C(C)(NC(=O)[C@H](C)NC(=O)[C@H](C)N)CCCCCCC=CCCCC(C)(C(=O)N[C@H](C(=O)N[C@@H](CCC(=O)O)C(=O)N[C@@H](Cc2ccc(O)cc2)C(=O)N[C@H](C(=O)N[C@@H](Cc2c[nH]cn2)C(=O)N[C@@H](CO)C(N)=O)C(C)C)[C@@H](C)O)NC(=O)[C@H](CCCCN)NC(=O)[C@H](CCCCN)NC(=O)[C@H](CC(C)C)NC1=O (stereo partly shown) [IDP-NS10] (H-AA[X1]VVILKK[ξαMeNle(6-ylidene)]TEYVHS-NH2; staple 3-10; N-terminus and C-terminus assumed)
[4]
  EC50: ~5 µM
[5]
  EC50: ~5 µM
[6]
  EC50: ~7.5 µM
[7]
  EC50: ~4 µM
[8]
  EC50: ~7 µM
[9]
  EC50: ~10 µM
[2]
  EC50: ~50 µM
[3]
  EC50: ~7 µM

## CC(C)C[C@@H]1NC(=O)[C@H](Cc2ccccc2)NC(=O)[C@H](CO)NC(=O)[C@H](CO)NC(=O)C(C)(NC(=O)[C@H](CC(C)C)NC(=O)[C@H](CC(=O)O)NC(=O)[C@H](CC(N)=O)NC(=O)[C@H](CCCNC(=N)N)NC(=O)[C@H](CCCNC(=N)N)NC(=O)[C@H](CCC(N)=O)NC(=O)[C@@H](N)CCCNC(=N)N)CCCCCCC=CCCCC(C)(C(=O)N[C@@H](CC(=O)O)C(=O)N[C@@H](Cc2c[nH]cn2)C(N)=O)NC(=O)[C@H](CC(C)C)NC(=O)[C@H]([C@@H](C)O)NC1=O (stereo partly shown) [IDP-NS16] (H-RQRRNDL[X1]SSFLTL[ξαMeNle(6-ylidene)]DH-NH2; staple 8-15; N-terminus and C-terminus assumed)
[2]
  EC50: ~10 µM
[3]
  EC50: ~15 µM

## CC(C)C[C@H](NC(=O)[C@H](CC(=O)O)NC(=O)[C@H](CC(N)=O)NC(=O)[C@H](CCCNC(=N)N)NC(=O)[C@@H](N)CCCNC(=N)N)C(=O)N[C@@H](CCCNC(=N)N)C(=O)N[C@@H](CO)C(=O)NC1(C)CCCCCCC=CCCCC(C)(C(=O)N[C@H](C(=O)N2CCC[C@H]2C(N)=O)C(C)C)NC(=O)[C@H](CC(=O)O)NC(=O)[C@H](CCCNC(=N)N)NC(=O)[C@H](CC(C)C)NC(=O)[C@H]([C@@H](C)O)NC(=O)[C@H](CC(C)C)NC(=O)[C@H](Cc2ccccc2)NC1=O (stereo partly shown) [Na05] (H-RRNDLRS[X1]FLTLRD[ξαMeNle(6-ylidene)]VP-NH2; staple 8-15; N-terminus and C-terminus assumed)
[3]
  EC50: ~10 µM

## AAKVVILKKATEYVHS-NH2 (C-terminus assumed) [IDP-wtLN10, reference compound]
Tumor cell lines
  inhibiting cancer cell proliferation (in words): not effective
[2]
  EC50: > 100 µM
[3]
  EC50: > 100 µM

## RQIKIWFQNRRMKWKKRQRRNDLRSSFLTLRDHVP-NH2 [NLCa02]
Tumor cell lines; tumor cell lines
  anti-cancer activity (in words): anti-cancer activity
[3]; RG1 cell line, 72-96 h incubation
  EC50: ~5 µM

## RRRRRRRAAKVVILKKATEYVHS-NH2 (C-terminus assumed) [IDP-intwtLN10, reference compound]
Tumor cell lines
  inhibiting cancer cell proliferation (in words): inactive
[2]
  EC50: > 100 µM
[3]
  EC50: > 100 µM
